From EP0034754A1, “2-((3-amino-2-hydroxy-propoxy)-styryl) isoxazoles, process for their preparation and pharmaceutical compositions containing them” (BASF Aktiengesellschaft, priority 1980, dated 1981)
Read-outs that look alike come from different tables or passages of the source.

Key:
[1] = test system: Isoproterenol-Tachycardie; test: ß-sympatholytic effect: inhibition of isoproterenol-induced tachycardia in despinalised rats; assay type: in vivo; conditions: Rattus norvegicus, iv, 5 min, read-out: ß-Sympatholytische Wirkung Ratte i.v. ED 50 %
Procedure: ß-sympatholytische Wirkung: • An despinalisierten Ratten (Stamm: Sprague Dawley, männlich, Gewicht 200 bis 240 g) verursacht Isoproterenol (0,1/ug/kg intravenös) Herfrequenzsteigerungen um durchschnittlich 121 + 2,1 min bei einer Ausgangsfrequenz von 268 + 3,9 min^-1 (Anzahl der Tiere N = 100). ß-Sympatholytika hemmen diese Frequenzsteigerungen spezifisch und dosisabhängig. Die Applikation der getesteten Substanzen erfolgt 5 min vor der Isoproterenolgabe.
Als ED 50 % werden die Dosen ermittelt, welche die Isoproterenol-Tachycardie um 50 % hemmen.
Als Referenzsubstanz dient das bekannte ß-Sympatholytikum Propranolol.

in vivo = conditions: for LD50: mouse, ip
mittleren Carotisdruck = test: Blood-pressure-lowering effect in the anaesthetised rat (urethane), carotid pressure; assay type: in vivo, Ratte; conditions: i.v.; for ED20: Rattus norvegicus, iv, Sprague Dawley rats under urethane anaesthesia, dose lowering mean carotid pressure by 20 %, read-out: Blutdrucksenkende Wirkung Ratte i.v. ED 20 %
From the text: Blutdrucksenkende Wirkung an der narkotisierten Ratte: • Zur Feststellung der blutdrucksenkenden Wirkung erhalten männliche Ratten (Stamm: Sprague Dawley, Gewicht: 230 bis 280 g) in Urethan-Narkose (1,78 g/kg intraperitoneal) die Prüfsubstanzen intravenös appliziert. Die Messung des Blutdruckes in der Aorta carotis erfolgt über Statham--Transducer.
Als ED 20 % wird die Dosis ermittelt, welche den mittleren Carotisdruck um 20 % senkt.

[2] = despinalised Sprague Dawley rats, i.v., given 5 min before isoproterenol 0,1 µg/kg i.v., dose inhibiting tachycardia by 50 %

Cc1noc(C=Cc2ccccc2OCC(O)CNC(C)C)c1Cl (stereo not drawn) [Beispiel 17, 4-Chlor-3-methyl-5-[2-(2-hydroxy-3-isopropylamino-prop-oxy)-styryl]-isoxazol]
ED50 [1, 2]: 0.00681 mg/kg | selectivity ratio (in vivo): 75000 | LD50 (in vivo): 511 mg/kg | ED20 (mittleren Carotisdruck): 1.95 mg/kg

COCc1cc(C=Cc2ccccc2OCC(O)CNC(C)(C)C)on1 (stereo not drawn) [Beispiel 4, 3-Methoxymethyl-5-[2-(2-hydroxY-3-tert.-butylamino-prop-oxy)-styryl]-isoxazol]
ED50 [1, 2]: 0.00742 mg/kg | selectivity ratio (in vivo): 13500 | LD50 (in vivo): 100 mg/kg | ED20 (mittleren Carotisdruck): 1 mg/kg

COCc1cc(C=Cc2ccccc2OCC(O)CNC2CC2)on1 (stereo not drawn) [Beispiel 9, 5-[2-(2-Hydroxy-3-cyclopropylamino-propoxy)-styryl]-3-methoxymethyl-isoxazol]
ED50 [1, 2]: 0.01 mg/kg | selectivity ratio (in vivo): 12100 | LD50 (in vivo): 121 mg/kg

COCc1cc(C=Cc2ccccc2OCC(O)CNC(C)C)on1 (stereo not drawn) [Beispiel 3, 3-Methoxymethyl-5-[2-(2-hydroxy-3-isopropylamino-propoxy)--styryl]-isoxazol]
ED50 [1, 2]: 0.0064 mg/kg | selectivity ratio (in vivo): 18900 | LD50 (in vivo): 121 mg/kg | ED20 (mittleren Carotisdruck): 1 mg/kg

CC(C)NCC(O)COc1cccc2ccccc12 (stereo not drawn) [Propranolol, reference compound]
ED50 [1]: 0.0127 mg/kg | Blutdrucksenkende Wirkung (mittleren Carotisdruck; rat, up to a dose of 2,15 mg/kg): senkt den Blutdruck bis zu einer Dosis von 2,15 mg/kg nicht

Cc1noc(C=Cc2ccccc2OCC(O)CNC(C)(C)C)c1Cl (stereo not drawn) [Beispiel 16, 4-Chlor-3-methyl-5-[2-(2-hydroxy-3-tert.-butylamino-prop-oxy)-styryl]-isoxazol]
ED50 [1, 2]: 0.01 mg/kg | selectivity ratio (in vivo): 14700 | LD50 (in vivo): 147 mg/kg | ED20 (mittleren Carotisdruck): 1 mg/kg
